Measured values reported in patent US10703756B2, “Pyrrolo[2,3-D]pyrimidinyl, pyrrolo[2,3-B]pyrazinyl, pyrrolo[2,3-B]pyridinyl acrylamides and epoxides thereof” (Pfizer Inc., priority 2015, dated 2020).
pIC50: −log10 of the molar value. Read-outs that look alike come from different tables or passages of the source. Blank lines part the entries; values can stand above or below the molecule they belong to.

Assays:
JAK3 enzyme [1] = target: T1, JAK3 enzyme (Homo sapiens, UniProt P52333); experiment: JAK Caliper Enzyme Assay at 4 μM ATP; type: biochemical
T1 sequence (P52333 1-1124): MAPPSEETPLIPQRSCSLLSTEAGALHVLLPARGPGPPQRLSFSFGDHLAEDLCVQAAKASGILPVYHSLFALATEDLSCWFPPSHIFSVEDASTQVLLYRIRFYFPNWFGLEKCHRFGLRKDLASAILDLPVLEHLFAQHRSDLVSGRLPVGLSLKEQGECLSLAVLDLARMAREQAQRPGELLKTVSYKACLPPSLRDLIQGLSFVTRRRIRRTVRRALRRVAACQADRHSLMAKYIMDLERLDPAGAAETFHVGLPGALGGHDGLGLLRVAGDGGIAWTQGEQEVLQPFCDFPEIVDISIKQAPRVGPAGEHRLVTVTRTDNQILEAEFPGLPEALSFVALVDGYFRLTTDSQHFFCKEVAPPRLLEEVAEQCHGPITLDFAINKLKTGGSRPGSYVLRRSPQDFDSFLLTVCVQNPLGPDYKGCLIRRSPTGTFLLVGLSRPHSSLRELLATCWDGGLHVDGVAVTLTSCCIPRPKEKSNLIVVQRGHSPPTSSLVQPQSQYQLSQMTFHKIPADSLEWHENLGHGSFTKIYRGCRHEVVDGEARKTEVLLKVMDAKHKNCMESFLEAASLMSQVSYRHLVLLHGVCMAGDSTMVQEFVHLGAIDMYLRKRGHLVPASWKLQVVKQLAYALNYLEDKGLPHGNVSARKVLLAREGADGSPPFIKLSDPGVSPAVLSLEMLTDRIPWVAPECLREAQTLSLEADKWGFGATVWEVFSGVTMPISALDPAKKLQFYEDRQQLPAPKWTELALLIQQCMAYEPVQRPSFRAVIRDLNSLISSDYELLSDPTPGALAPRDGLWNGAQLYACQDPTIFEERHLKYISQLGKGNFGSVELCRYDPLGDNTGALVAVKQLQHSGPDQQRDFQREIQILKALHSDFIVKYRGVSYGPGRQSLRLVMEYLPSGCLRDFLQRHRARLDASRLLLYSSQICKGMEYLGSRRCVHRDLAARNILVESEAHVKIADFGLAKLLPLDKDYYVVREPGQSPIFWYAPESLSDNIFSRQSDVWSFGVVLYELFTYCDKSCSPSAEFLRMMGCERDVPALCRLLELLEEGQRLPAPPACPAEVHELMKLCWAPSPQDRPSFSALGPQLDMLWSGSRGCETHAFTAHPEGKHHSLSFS
Procedure, shortened: (§1)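 11-pt ½-log cpd titration in DMSO (top 600 μM, pre-assay); enzyme conc/incubation adjusted per prep → 20-30% peptide phosphorylation; phospho vs non-phospho peptide read by chip-based electrophoretic separation.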

[2] = system: IL-15 induced P-STAT5 in human PBMC; experiment: PBMC IL-15 Induced P-STAT5; type: cell-based; details: for pIC50: human PBMC, IL-15 final 41 ng/mL, read-out: PBMC IL15_pSTAT5_IC50
Protocol: PBMC IL-15 Induced P-STAT5
Test compounds were serially diluted in DMSO, with further dilution of the compounds in RPMI 1640 medium (Invitrogen #72400) supplemented with 10 mM HEPES, pH 7.4, 1 mM sodium pyruvate, and Penicillin/Streptomycin (by adding 5 μL compound/DMSO in 120 μL Dulbecco's Phosphate-Buffered Saline (D-PBS, 1×), [DMSO]=4%, and mixing the solution by repeated pipetting, 6×). IL-15 was diluted to the concentration at 820 ng/mL in RPMI 1640 medium.
Frozen human PBMC (200-250 million cells/vial) was thawed at 37° C. The cells were transferred to 10 mL warm medium in a 50-mL conical tube, and centrifuged at 1,200 RPM at room temperature for 5 min. The supernatant was aspirated. Cells were suspended in 3 mL warm human plasma and incubated at 37° C. in a tissue culture incubator for 1.5 to 2 h. After adding 47 ml D-PBS (37° C.) to PBMC/FBS suspension, centrifuging at 1,200 RPM at room temperature for 5 min, and aspirating the supernatant, the cells were resuspended in 20 mL warm RPMI medium. Ninety μL of cell suspension were pipetted per well in a 96-well, deep-well, V-bottom plate, and the plate was incubated at 37° C. for 30 min. Five μL of compound were transferred to each well (final 0.2% DMSO), vortex gently and incubate at 37° C. for 15 min; 5 μL 4% DMSO/PBS were added to the control wells. After adding 5 μL 820 ng/mL of human IL-15 (final 41 ng/mL) to each well (5 μL PBS to the control wells), vortexing gently and incubating at 37° C. for 15 min, followed by 0.3 mL 1% paraformaldehyde/PBS (37° C.) to each well, and incubating the plate at room temperature for 15 min, the plates were centrifuged at 1,200 RPM (Beckman GS-6R or Sorvall Legend) at room temperature for 5 min, and the supernatant was aspirated using a 8-channel or 12-channel manifold. After adding 0.8 mL staining buffer per well, the plates were centrifuged at 1,200 RPM (Beckman GS-6R or Sorvall Legend) at room temperature for 5 min, and again the supernatant was aspirated using a 8-channel or 12-channel manifold. The plate was vortexed, and 0.35 mL 90% methanol/10% H2O (−20° C.) was added per well, and the plate incubated on ice for 20 min. After again adding 0.8 mL staining buffer per well, the plates were centrifuged at 1,200 RPM (Beckman GS-6R or Sorvall Legend) at room temperature for 5 min, and again the supernatant was aspirated using a 8-channel or 12-channel manifold, and then 0.8 mL Staining buffer was added per well. After once again adding 0.8 mL staining buffer per well, the plates were centrifuged at 1,200 RPM (Beckman GS-6R or Sorvall Legend) at room temperature for 5 min, and again the supernatant was aspirated using a 8-channel or 12-channel manifold. Then the plate was vortexed, and 250 μL/well of Alexa Fluor® 647 conjugated anti-STAT5 antibody ([…]; […]) was added, and the plate was incubated at 4° C. overnight in the dark. Samples of 250 μL/well were transferred to a 96-well U-bottom plate, and the FACS analysis was performed gating on total lymphocytes. Samples were analyzed using a BD Calibur™ or BD FACSCanto™ flow cytometer equipped with the BD High Throughput Sampler.

JAK3 enzyme [3] = target: T1, JAK3 enzyme; experiment: JAK Caliper Enzyme Assay at 1 mM ATP; type: biochemical
Procedure, shortened: as §1

SMILES: C=CC(=O)N1CCC(Nc2cnc3[nH]cc(C(=O)NCC(C)CC(F)(F)F)c3n2)CC1C (racemic) [Example 310, Racemic-2-[(1-acryloyl-2-methylpiperidin-4-yl)amino]-N-(4,4,4-trifluoro-2-methylbutyl)-5H-pyrrolo[2,3-b]pyrazine-7-carboxamide]
- pIC50 (JAK3 enzyme [1]): 8.68
- pIC50 [2]: 5.92
- pIC50 (JAK3 enzyme [3]): 6.77

SMILES: C=CC(=O)N1CC[C@@H](Nc2cnc3[nH]cc(C(=O)NCC)c3n2)[C@H](OC)C1 (single isomer, unassigned) [Example 26]
- pIC50 (JAK3 enzyme [1]): 8.78
- pIC50 [2]: 5.72
- pIC50 (JAK3 enzyme [3]): 7.00

SMILES: C=CC(=O)N1CC[C@H](Oc2cnc3[nH]cc(C(=O)NCC)c3n2)[C@@H](C)C1 (single isomer, unassigned) [Example 48]
- pIC50 (JAK3 enzyme [1]): 7.31
- pIC50 [2]: 5.17
- pIC50 (JAK3 enzyme [3]): 5.51

SMILES: C=CC(=O)N1C[C@@H](Nc2ncnc3[nH]ccc23)CC[C@H]1CNC(C)=O (single isomer, unassigned) [Example 90]
- pIC50 (JAK3 enzyme [1]): 8.98
- pIC50 [2]: 5.49
- pIC50 (JAK3 enzyme [3]): 6.82

SMILES: C=CC(=O)N1CCC(Oc2cnc3[nH]cc([C@@H](C)O)c3n2)CC1 (single isomer, unassigned) [Example 119]
- pIC50 (JAK3 enzyme [1]): 7.47
- pIC50 [2]: 5.03
- pIC50 (JAK3 enzyme [3]): 5.41

SMILES: C=CC(=O)N1CC[C@H](Nc2cnc3[nH]cc(C(=O)N[C@H](C)COC)c3n2)C[C@@H]1C (stereo in doubt) [Example 354, 2-(((2S,4S)-1-Acryloyl-2-methylpiperidin-4-yl)amino)-N—((R)-1-methoxypropan-2-yl)-5H-pyrrolo[2,3-b]pyrazine-7-carboxamide]
- pIC50 (JAK3 enzyme [1]): 8.47
- pIC50 [2]: 5.34
- pIC50 (JAK3 enzyme [3]): 6.58

SMILES: C=CC(=O)N1CC[C@H](Oc2cnc3[nH]cc(C(=O)N[C@H](C)COC)c3n2)C1 [Example 54, 2-{[(3S)-1-acryloylpyrrolidin-3-yl]oxy}-N-[(2R)-1-methoxypropan-2-yl]-5H-pyrrolo[2,3-b]pyrazine-7-carboxamide]
- pIC50 (JAK3 enzyme [1]): 8.60
- IC50 ([2]; Homo sapiens, PBMC, read-out: PBMC IL15_pSTAT5_IC50 (nM)): 1640 nM
- pIC50 (JAK3 enzyme [3]): 6.46

SMILES: C=CC(=O)N1CCC(C)(Oc2cnc3[nH]cc(C(=O)NCC)c3n2)CC1 [Example 61, 2-[(1-acryloyl-4-methylpiperidin-4-yl)oxy]-N-ethyl-5H-pyrrolo[2,3-b]pyrazine-7-carboxamide]
- pIC50 (JAK3 enzyme [1]): 8.47
- pIC50 [2]: 5.66
- pIC50 (JAK3 enzyme [3]): 6.25

SMILES: C=CC(=O)N1CCN(c2cnc3[nH]cc(C(=O)N[C@@H](CC)COC)c3n2)CC1(C)C [Example 135, 2-(4-acryloyl-3,3-dimethylpiperazin-1-yl)-N-[(2S)-1-methoxybutan-2-yl]-5H-pyrrolo[2,3-b]pyrazine-7-carboxamide]
- pIC50 (JAK3 enzyme [1]): 8.83
- pIC50 [2]: 6.12
- pIC50 (JAK3 enzyme [3]): 6.77

SMILES: C=CC(=O)N1CCN(c2cnc3[nH]cc(C(=O)N[C@H](C)CC#N)c3n2)CC1(C)C [Example 152, 2-(4-acryloyl-3,3-dimethylpiperazin-1-yl)-N-[(2R)-1-cyanopropan-2-yl]-5H-pyrrolo[2,3-b]pyrazine-7-carboxamide]
- pIC50 (JAK3 enzyme [1]): 8.70
- pIC50 [2]: 6.29
- pIC50 (JAK3 enzyme [3]): 6.59

Now from value to molecule, other results behind:

- pIC50 (JAK3 enzyme [1]): 9.28
- pIC50 (JAK3 enzyme [3]): 7.20
SMILES: C=CC(=O)N1CCC(C)(Nc2cnc3[nH]cc(C(=O)NCC(C)CC(F)(F)F)c3n2)CC1 (racemic) [Example 270, Racemic-2-[(1-acryloyl-4-methylpiperidin-4-yl)amino]-N-(4,4,4-trifluoro-2-methylbutyl)-5H-pyrrolo[2,3-b]pyrazine-7-carboxamide]
- pIC50 [2]: 6.17

- pIC50 (JAK3 enzyme [1]): 8.61
- pIC50 (JAK3 enzyme [3]): 6.44
SMILES: C=CC(=O)N1CCC(Nc2cnc3[nH]cc(C(=O)NCCCC(F)(F)F)c3n2)CC1C (racemic) [Example 282, Racemic-2-[(1-acryloyl-2-methylpiperidin-4-yl)amino]-N-(4,4,4-trifluorobulyl)-5H-pyrrolo[2,3-b]pyrazine-7-carboxamide]
- pIC50 [2]: 5.51

- pIC50 (JAK3 enzyme [1]): 8.67
- pIC50 (JAK3 enzyme [3]): 6.74
SMILES: C=CC(=O)N1CCC(Nc2cnc3[nH]cc(C(=O)NC4CCC4)c3n2)CC1C (racemic) [Example 320, Racemic-2-[(1-acryloyl-2-methylpiperidin-4-yl)amino]-N-cyclobutyl-5H-pyrrolo[2,3-b]pyrazine-7-carboxamide]
- pIC50 [2]: 5.90

- pIC50 (JAK3 enzyme [1]): 8.67
- pIC50 (JAK3 enzyme [3]): 6.44
SMILES: C=CC(=O)N1CC[C@H](Nc2cnc3[nH]cc(C(=O)NCC)c3n2)C[C@@H]1C (racemic) [Example 349, 2-(((2S,4S)-1-acryloyl-2-methylpiperidin-4-yl)amino)-N-ethyl-5H-pyrrolo[2,3-b]pyrazine-7-carboxamide]
- pIC50 [2]: 5.53

- pIC50 (JAK3 enzyme [1]): 7.93
- pIC50 (JAK3 enzyme [3]): 5.91
SMILES: C=CC(=O)N1C[C@H](CC#N)C[C@H](Nc2ncnc3[nH]ccc23)C1 (single isomer, unassigned) [Example 107]
- pIC50 [2]: 5.08

- pIC50 (JAK3 enzyme [1]): 8.20
- pIC50 (JAK3 enzyme [3]): 5.92
SMILES: C=CC(=O)N(C)C1CN(c2cnc3[nH]cc(C(=O)NCC)c3n2)C1 [Example 59, 2-{3-[acryloyl(methyl)amino]azetidin-1-yl}-N-ethyl-5H-pyrrolo[2,3-b]pyrazine-7-carboxamide]
- pIC50 [2]: 5.31

- pIC50 (JAK3 enzyme [1]): 8.78
- pIC50 (JAK3 enzyme [3]): 6.48
SMILES: C=CC(=O)N(C)C1CN(c2cnc3[nH]cc(C(=O)NCCOC)c3n2)C1 [Example 84, 2-{3-[acryloyl(methyl)amino]azetidin-1-yl}-N-(2-methoxyethyl)-5H-pyrrolo[2,3-b]pyrazine-7-carboxamide]
- pIC50 [2]: 5.91

- pIC50 (JAK3 enzyme [1]): 8.51
- pIC50 (JAK3 enzyme [3]): 6.44
SMILES: C=CC(=O)N1CCN(c2cnc3[nH]cc(C(=O)N[C@@H](C)C(=O)OC)c3n2)CC1(C)C [Example 158, Methyl N-{[2-(4-acryloyl-3,3-dimethylpiperazin-1-yl)-5H-pyrrolo[2,3-b]pyrazin-7-yl]carbonyl}-L-alaninate]
- pIC50 [2]: 6.05
